Laboratory results published in article PMC12622802, “Potent kinase inhibitors from the Merck KGaA OGHL: Novel hits against Trypanosoma brucei with potential for repurposing” (PLOS Neglected Tropical Diseases, 2025).
Entries after “also recorded” stand apart in the source; their conditions may differ. Where two headings read alike, the source gives them in different places.

Tests used:
[1] = Cytotoxicity, resazurin reduction assay, Raw264.7; format: cell-based, murine; conditions: mouse
Procedure: (§1) For cytotoxicity testing, they were seeded (90 µL) in 96-well plates at a density of 1x10^4 cells/well, in duplicate, and allowed to adhere overnight. […] Cell viability was then assessed using the resazurin reduction assay, as described above. […] Data were analysed using Microsoft Excel and GraphPad Prism 8.0. Nonlinear regression with a sigmoidal dose-response fit model was applied to the data to determine IC50 and CC50 values. Results represent the mean ± standard deviation (SD) from two independent experiments performed in duplicate.

[2] = Cytotoxicity, resazurin reduction assay, HepG2; format: cell-based, human; conditions: human
Procedure: (§2) Vero E6 (African green monkey kidney), Raw264.7 (murine macrophages) and HepG2 (human hepatocyte carcinoma) cell lines, sourced from the American Type Culture Collection, were cultured in DMEM supplemented with 10% (v/v) heat-inactivated fetal bovine serum, 1% (v/v) non-essential amino acids, and 1% (v/v) penicillin-streptomycin. Cells were maintained at 37 °C in a 5% CO2 atmosphere. For cytotoxicity testing, they were seeded (90 µL) in 96-well plates at a density of 1x10^4 cells/well, in duplicate, and allowed to adhere overnight. Serial dilutions (50-0.08 µM) of the compounds were prepared, and 10 µL of each were incubated with the monolayer for 48 hours. Podophyllotoxin was tested as a positive control at 10 μM and 0.5% DMSO (100% cell viability) was used as negative control. Cell viability was then assessed using the resazurin reduction assay, as described above. The 50% cytotoxic concentration (CC50) was calculated using GraphPad Prism software (version 8.0), and selectivity indices (SIs) were determined by dividing the […].
(§3) Data were analysed using Microsoft Excel and GraphPad Prism 8.0. Nonlinear regression with a sigmoidal dose-response fit model was applied to the data to determine IC50 and CC50 values. Results represent the mean ± standard deviation (SD) from two independent experiments performed in duplicate.

[3] = Cytotoxicity, resazurin reduction assay, Vero; format: cell-based; conditions: African green monkey
Procedure: as §1

[4] = system: bloodstream forms of T. b. brucei; experiment: Trypanosome killing kinetics (time-kill assay); format: cell-based, Trypanosoma brucei brucei; conditions: for activity profile in time-kill assay (trypanocidal or cytostatic): 8IC50, 4IC50, IC50, 0.25IC50, over 72 hours
Procedure: (§4) To evaluate the killing kinetics of selected compounds, bloodstream forms of T. b. brucei (2 x 10⁵ cells/mL) were incubated in normal culture conditions in the presence of compounds at 8IC50, 4IC50, IC50, and 0.25IC50 concentrations in 24-well plates. Upon incubation, cultures were centrifuged at 0, 4, 8, 12, 24, 30, 36, 48, 60, and 72 hours’ time intervals at 2,500 rpm followed by motile trypanosomes enumeration using a Lumascope LS520 inverted microscope. To determine the mode of inhibition (parasitostatic or parasiticidal), a rescue experiment was conducted. Trypanosomes were exposed to the test doses (8IC50, 4IC50, IC50, and 0.25IC50) of the compounds for 4 hours. They were then washed three times with phosphate buffer saline (DPBS 1X), centrifuged at 2,500 rpm for 7 minutes, and resuspended in complete drug-free medium. These parasites were cultured under the same conditions, and motile organisms were enumerated with the Neubauer chamber at regular intervals over 72 hours. Data were plotted using GraphPad Prism 8.0 to determine the inhibition kinetics and classify the inhibitors as cidal or static. Pentamidine isethionate served as the reference compound and experiments were performed in duplicate.

[5] = system: bloodstream forms of T. b. brucei; experiment: Rescue experiment (4 h exposure, washout, drug-free medium); format: cell-based, Trypanosoma brucei brucei; conditions: 72 hours monitoring, 4xIC50 and 8xIC50
Procedure: as §4

[6] = system: bloodstream forms of T. b. brucei Lister 427; experiment: Resazurin reduction growth inhibition assay against bloodstream forms of T. b. brucei; format: cell-based, Trypanosoma brucei brucei; conditions: read-out: IC50 ± SD (µM) T. b. b.
Procedure: Bloodstream forms of T. b. brucei Lister 427, a virulent laboratory strain of Trypanosoma brucei were cultured in HMI-9 medium as previously described. […] The resulting signal measured between 570 nm and 590 nm, is directly proportional to the quantity of viable parasites. […] After incubation, a working solution of resazurin (0.15 mg/mL in DPBS) was added to the plates in a 1:10 (v/v) ratio, followed by incubation for 4 hours at 37 °C with 5% CO2. Fluorescence was measured using an Infinite M200 microplate reader (Tecan) at excitation and emission wavelengths of 530 nm and 590 nm, respectively. Compound achieving ≥ 50% inhibition of trypanosomes were selected for further dose-response studies.
Compounds that adhered to the cutoff criterion (≥ 50% inhibition) were serially diluted and tested for their half-maximal inhibitory concentrations (IC50). […] Dose-response curves were generated using GraphPad Prism software (version 8.0). […]
Data were analysed using Microsoft Excel and GraphPad Prism 8.0. Nonlinear regression with a sigmoidal dose-response fit model was applied to the data to determine IC50 and CC50 values.

[7] = target: human CX3C motif chemokine receptor 1 (CX3CR1); parameters: method as in printed; conditions: known human target; ref not given; cited from earlier work
[8] = system: HepG2 (human hepatocyte carcinoma) cells; experiment: Cytotoxicity, resazurin reduction assay, HepG2; format: cell-based
Procedure: as §2, §3

[9] = system: insulin-like growth factor 1 (IGF-1R); parameters: method as in ref 31 = [31]; 31 Garcia-Echeverria C , Kanazawa T , Kawahara E , Masuya K , Matsuura N , Miyake T . 2, 4-pyrimidinediamines useful in the treatment of neoplastic diseases, inflammatory and immune system disorders .; conditions: cited from earlier work
[10] = target: leucine-rich repeat kinase 2 (LRRK2); parameters: method as in ref 31 = [31]; 31 Garcia-Echeverria C , Kanazawa T , Kawahara E , Masuya K , Matsuura N , Miyake T . 2, 4-pyrimidinediamines useful in the treatment of neoplastic diseases, inflammatory and immune system disorders .; conditions: cited from earlier work
[11] = target: anaplastic lymphoma kinase (ALK); parameters: method as in ref 31 = [31]; 31 Garcia-Echeverria C , Kanazawa T , Kawahara E , Masuya K , Matsuura N , Miyake T . 2, 4-pyrimidinediamines useful in the treatment of neoplastic diseases, inflammatory and immune system disorders .; conditions: cited from earlier work
[12] = target: focal adhesion kinase (FAK); parameters: method as in ref 31 = [31]; 31 Garcia-Echeverria C , Kanazawa T , Kawahara E , Masuya K , Matsuura N , Miyake T . 2, 4-pyrimidinediamines useful in the treatment of neoplastic diseases, inflammatory and immune system disorders .; conditions: cited from earlier work
[13] = Trypanosoma brucei, 72 h, confirmation screen, powdered form, 72 hours
[14] = Trypanosoma brucei, 72 h, primary screen, DMSO stock solution, bloodstream form T. b. brucei Lister 427, 72 hours
[15] = primary screen, DMSO stock solution, bloodstream form T. b. brucei Lister 427, 72 hours

Row | Compound | IC50 [6, 14] [µM] | IC50 [6, 15] [µM] | CC50 at 48 h [2] [µM] | CC50 [8] [µM] | further results
1 | COc1cc([C@@H]2c3cc4c(cc3[C@H](O)[C@H]3COC(=O)[C@H]23)OCO4)cc(OC)c1OC [Podophyllotoxin, reference compound] | – | – | – | – | CC50 at 48 h ([1]; confirmation screen, powdered form, 48 hours, read-out: CC50 ± SD (µM) Raw): 0.016 ± 0.002 µM; CC50 at 48 h ([2]; primary screen, DMSO stock solution, 48 hours, read-out: CC50 ± SD (µM) HepG2): 0.031 ± 0.009 µM; CC50 at 48 h ([3]; confirmation screen, powdered form, 48 hours, read-out: CC50 ± SD (µM) Vero): 0.08 ± 0.005 µM
2 | CN(C)C(=O)/C=C/C(=O)c1ccc(SCc2ccc(Cl)cc2Cl)cc1 [OGHL00006, (E)-4-(4-((2,4-dichlorobenzyl)thio)phenyl)-N,N-dimethyl-4-oxobut-2-enamide] | ≤ 1 | 0.56 ± 0.001 | 17.5 ± 0.94 | – | activity profile in time-kill assay (trypanocidal or cytostatic) [4]: strong trypanocidal activity; effect after short exposure and washout (reversible or irreversible) [5]: irreversible trypanocidal activity; also recorded: irreversible trypanocidal effects; IC50 [6, 13]: 0.6 ± 0.1 µM; CC50 at 48 h [1]: 2.2 ± 0.05 µM; CC50 at 48 h [3]: 1.2 ± 0.07 µM; IC50 [7]: 526 nM
3 | COc1cccc(CNc2nnc(-c3c[nH]c4ncccc34)o2)c1 [OGHL00138] | – | 1.55 ± 0.2 | – | 23.1 ± 3.57 | –
4 | CCOc1cc(CCNC(=O)C[C@H]2S[C@@H](c3ccc(C#Cc4ccccc4)cc3)N(c3cccc(C(N)=O)c3)C2=O)ccc1OC [OGHL00152] | 8.87 ± 0.7 | – | – | – | –
5 | CCOc1cc(CCNC(=O)C[C@H]2S[C@@H](c3ccc(C#Cc4ccccc4)cc3)N(c3cccc(C(N)=O)c3)C2=O)ccc1O [OGHL00183] | 9.64 ± 0.05 | – | 50 | – | –
6 | COc1ccc(OCCCO)cc1-c1cn2cc(-c3nnc(NCCCCc4ccccc4)o3)ccc2n1 [OGHL00236] | – | 6.19 ± 0.4 | – | 9.07 ± 0.94 | –
7 | CNS(=O)(=O)c1ccccc1Nc1nc(Nc2cc(OC)c(OC)cc2C)ncc1Br [OGHL00133, 2-((5-bromo-2-((4,5-dimethoxy-2-methylphenyl)amino)pyrimidin-4-yl)amino)-N-methylbenzenesulfonamide] | – | – | > 50 | – | activity profile in time-kill assay (trypanocidal or cytostatic) [4]: cytostatic activity; effect after short exposure and washout (reversible or irreversible) [5]: reversible inhibitory effect; IC50 [6, 13]: 0.007 ± 0.00073 µM; CC50 at 48 h [1]: 4.5 ± 0.1 µM; IC50 [9]: < 80 nM; IC50 [10]: 0.13 nM; IC50 [11]: 30 nM; CC50 at 48 h [3]: 1.01 ± 0.09 µM; IC50 [12]: 2.8 nM
8 | N=C(N)c1ccc(OCCCCCOc2ccc(C(=N)N)cc2)cc1 [Pentamidine isethionate, reference compound] | – | – | – | – | activity profile in time-kill assay (trypanocidal or cytostatic) [4]: complete and sustained parasite clearance across all tested concentrations; time of exposure to parasite killing / growth arrest ([4]; time-kill assay): ≤ 24 h
9 | COc1cc(OC)c(CCNC(=O)c2ccc3nc(-c4cc(OC)ccc4OC)cn3c2)c(OC)c1 [OGHL00231] | 9 | 9.06 ± 0.13 | > 50 | – | –
10 | COc1ccc(OCC(N)=O)cc1-c1cn2cc(C(=O)NCCc3c(OC)cccc3OC)sc2n1 [OGHL00241] | 2.28 ± 0.04 | – | 9.259 ± 0.019 | – | –
11 | COc1nc(/C=C/c2nc3n(n2)CCCC3c2ccccc2C(F)(F)F)ccc1-n1cnc(C)c1 (stereo not drawn) [OGHL00208] | 7.53 ± 1.27 | – | 2.36 ± 0.52 | – | –
12 | CCC(C)[S+]([O-])c1ccc(-c2nc3ccncc3[nH]2)c(OC)c1 (stereo not drawn) [OGHL00019] | – | 2.49 ± 0.1 | – | 19.8 ± 2.72 | –
13 | COc1ccc(C(=O)N2CCC(C)(C)c3cc(C4=NNC(=O)SC4C)ccc32)cc1OC (stereo not drawn) [OGHL00025] | 9.22 ± 0.0007 | – | 33.3 ± 2.83 | – | –
14 | CNC(=O)c1cc(Oc2ccc(NC(=O)Nc3cc(C(F)(F)F)ccc3-n3ccnc3)cc2)ccn1 [OGHL00130] | 3 | 3.05 ± 0.14 | 12.9 ± 0.5 | – | –
15 | Oc1ccc2[nH]cc(CCCCN3CC=C(c4ccccc4)CC3)c2c1 [OGHL00007] | – | 5.3 ± 0.7 | – | > 50 | –
16 | COc1cc(C(=O)N(C)C)ccc1-c1cc2nccc(-c3ccc4ccncc4c3)c2o1 [OGHL00250] | – | 2.15 ± 0.2 | – | > 50 | –
17 | COc1cc(OC)c(CCNC(=O)c2cn3cc(-c4cc(OC)ccc4OC)nc3s2)c(OC)c1 [OGHL00227] | 2.8 ± 0.08 | – | > 50 | – | fold increase in selectivity ([8]; relative to the analogue of the same series named in the sentence): 3.5 fold
18 | CCCc1nn(C)c2c(=O)[nH]c(-c3cc(C(=O)N=C(N)N)ccc3OCC)nc12 [OGHL00103] | – | 7.8 ± 0.07 | – | 41.5 ± 3.4 | –
19 | COc1ccc(OC)c(CCNC(=O)c2cn3cc(-c4cc(OC)ccc4OC)nc3s2)c1 [OGHL00225] | 9.86 ± 0.0007 | – | > 50 | – | –
20 | COc1cc(OC)c(CCNC(=O)c2cn3cc(-c4cc(OCC#N)ccc4OC)nc3s2)c(OC)c1 [OGHL00238] | 2.67 ± 0.7 | – | 2.01 ± 0.46 | – | –
21 | CN(CCCCc1ccc(F)cc1)CCC(=O)c1ccc2[nH]c(=O)oc2c1 [OGHL00087] | – | 8.62 ± 0.093 | – | 27.3 ± 4.5 | –
22 | COc1nc(/C=C/c2nc3n(n2)CCC[C@@H]3c2ccccc2C(F)(F)F)ccc1-n1cnc(C)c1 [OGHL00211] | 2.37 ± 0.22 | – | 5.94 ± 2.55 | – | –
23 | CNS(=O)(=O)c1ccccc1Nc1nc(Nc2ccc(N3CCOCC3)cc2OC)ncc1Br [OGHL00134] | 1.3 | 1.31 ± 0.22 | 22.1 ± 5.06 | – | –
24 | CCN=C(c1ccc(OC)c(OC)c1)N1CCCc2cc(C3=NNC(=O)SC3C)ccc21 (stereo not drawn) [OGHL00032] | – | – | 48.43 ± 0.25 | – | IC50 ([6]; Trypanosoma brucei, 72 h): 5.04 ± 0.16 µM
25 | Cc1ccccc1-c1ccc(-c2nc(-c3ccc(CN(C)CCC(=O)O)c(F)c3)no2)cc1OCC1CC1 [OGHL00165] | – | 8.83 ± 0.09 | – | > 50 | –
